Broadly, the IC50 is the point on the concentration scale where inhibition reaches its midpoint. The low end stands for greater potency, the high end for weaker potency.

Data on eight compounds can be found in ChEMBL document CHEMBL1221244, “Total synthesis and biological evaluation of tambjamine K and a library of unnatural analogs” (Bioorg Med Chem Lett, 2010).

The subject of test [1] is MCF7. As to the kind of experiment: Antiproliferative activity against human MCF7 cells assessed as cell viability at 10 uM after 48 hrs by WST-1 assay. The class given is functional. Conditions: MCF7, 48 h, read-out: Activity.
The subject of test [2] is SW-620. The test can be described thus: Antiinvasive activity against human SW620 cells at 10 uM after 24 hrs. It counts as functional, cell-based.
Test [3] concerns HCT-116. As to the kind of experiment: Antiproliferative activity against human HCT116 cells after 48 hrs by WST-1 assay. The class given is functional, cell-based. To be noted: HCT-116, 48 h. Background: Formazan colour is commonly taken as a measure of viable cells.
The test system of test [4] is MDA-MB-231. As to the kind of experiment: Antiproliferative activity against human MDA-MB-231 cells after 48 hrs by WST-1 assay. It counts as functional, cell-based. Conditions: MDA-MB-231, 48 h.
The subject of test [5] is MDA-MB-231. The test can be described thus: Antiproliferative activity against human MDA-MB-231 cells assessed as cell viability at 10 uM after 48 hrs by WST-1 assay. The class given is functional. To be noted: MDA-MB-231, 48 h, read-out: Activity.
Test [6] deals with NCI-H520. The test can be described thus: Antiproliferative activity against human NCIH520 cells after 48 hrs after 48 hrs by WST-1 assay. It counts as functional, cell-based.
Test [7] has as its system Caco-2. The test can be described thus: Antiproliferative activity against human Caco-2 cells. The class given is functional, cell-based.

The source made the active and inactive calls. The rule behind the calls is not given here. Some results are limits rather than exact numbers.

`COC1=CC(c2ccc[nH]2)=N/C1=C\NC1Cc2ccccc2C1`: the viability at 10 µM in test [1] was less than 20%. In addition, the result in test [2] was inactive.

As for `COC1=CC(c2ccc[nH]2)=N/C1=C\NC1CCCc2ccccc21` (configuration not stated), the 50% inhibitory concentration (IC50) turned out to be 1.8 µM in test [3] and 4 µM in test [4]. Moreover, the viability at 10 µM in test [1] is less than 10%; in test [5], 40%. The outcome in test [6] was inactive.

With `COC1=CC(c2ccc[nH]2)=N/C1=C\NCCC(C)C` [TAMBJAMINE K], the IC50 stood at 13.7 µM in test [3], 15.3 µM in test [4] and 0.0033 µM in test [7].

Take `COC1=CC(c2ccc[nH]2)=N/C1=C\NCC1CCCCC1`: in test [1], the viability at 10 µM is less than 20%.

In the case of `CCCC(C)N/C=C1\N=C(c2ccc[nH]2)C=C1OC` (configuration not stated), the viability at 10 µM in test [1] was less than 20%.

With `COC1=CC(c2ccc[nH]2)=N/C1=C/c1ccc(CCCCCCC/C=C/C(C)=O)[nH]1`, the IC50 stood at 3.6 µM in test [3] and 3.5 µM in test [4].

With `COC1=CC(c2ccc[nH]2)=N/C1=C\NC1CCc2ccccc21` (configuration not stated), in test [1], the viability at 10 µM was less than 20%.

Take `CO[C@@H]1CC(c2ccc[nH]2)=N[C@]12O[C@@H](C)C[C@@H]1CCCCCCCc3ccc([nH]3)[C@H]12` [MARINEOSIN A]: the IC50 in test [3] came to 0.14 µM; in test [4], 0.36 µM.
